“And” between values parts separate entries of the source, which are not always exact repeats. Equal entries are not always repeated.
Experiments:
[1] = from WO2021/053058, Examples 1-5; cited from earlier work
C6M (collagen Type 6) = assay: 12-week study NCT03636347: collagen degradation biomarker C6M; format: in vivo, human; settings: alvelestat at week 12, three treatment arms pooled, N = 36; ANCOVA
Experimental: (§1) An aspect of NCT03636347 was to investigate the effect of alvelestat on collagen biomarkers in patients with PiZZ, null or rare variant phenotype/genotype alpha-1 anti-trypsin deficient lung disease. % Change from baseline in a number collagen degradation biomarkers were measured over a 12 week period in alvelestat and placebo arms. Inclusion criteria: patients (18 Years to 75 Years) with a confirmed diagnosis of alpha-1-anti-trypsin deficiency and a PiZZ, null or other rare geno/phenotype and serum […] levels of less than 11 uM; FEV1≥20% predicted; Computerised tomography (CT) scan evidence of emphysema; and non-smokers. Alvelestat was given orally at 120 mg twice daily, 240 mg twice daily, or dose escalation up to 240 mg twice daily, so there were three alvelestat treatment arms. Collagen degradation biomarkers […] (collagen Type 1), […] (collagen Type 6), […] (collagen Type 4) C3M (collagen Type 3) were collected at baseline (e.g. before treatment with alvelestat or placebo) and after 12 weeks following treatment with alvelestat or placebo. Biomarkers related to C3M and […] were measured by competitive Enzyme Linked Immunosorbant Assay (ELISA) (Nordic Biosciences, Denmark).[1] Biomarkers related to […] and […] were measured with Nordic Bioscience assays [Chest. […] C1M, […] concentrations were measured in ng/mL. […]

C3M (collagen Type 3) = assay: 12-week study NCT03636347: collagen degradation biomarker C3M; format: in vivo, human; settings: alvelestat at week 12, three treatment arms pooled, N = 34; ANCOVA
Experimental: as §1

Neutrophil Elastase (NE) [2] = molecular target: T1, Neutrophil Elastase (NE) (Homo sapiens, UniProt P08246); settings: from WO2021/053058, Examples 1-5; cited from earlier work
T1 sequence (P08246 30-267): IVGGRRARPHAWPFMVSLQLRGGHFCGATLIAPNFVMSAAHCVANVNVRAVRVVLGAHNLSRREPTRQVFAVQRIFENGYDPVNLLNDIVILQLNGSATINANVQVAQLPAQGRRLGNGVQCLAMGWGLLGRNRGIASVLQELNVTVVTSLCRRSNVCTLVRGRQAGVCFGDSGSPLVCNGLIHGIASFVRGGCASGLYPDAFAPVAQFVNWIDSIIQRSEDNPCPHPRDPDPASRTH

PRO-C3 = assay: Phase 1b study: collagen type 3 synthesis biomarker PRO-C3 (and PRO-C3:C3M ratio) by competitive ELISA; format: in vivo, human
Experimental: (§2) Patients age ≥18 years with BOS and chronic GVHD after HCT were recruited to the National Cancer Institute protocol (NCT02669251). This phase 1 study had 2 parts: 8-week intra-patient dose escalation period, followed by a continuation period that allowed for up to 6 months of treatment. Alvelestat was given orally starting at 60 mg twice daily, increased every 2 weeks to 120 mg twice daily, 180 mg twice daily, and finally 240 mg twice daily.
(§3) Blood biomarkers for neutrophil elastase activity, desmosine, isodesmosine, PRO-C3 and PRO-C6, were collected at baseline (pre-treatment with alvelestat) and after every 2 weeks during alvelestat dose escalations i.e. after 60 mg bid, 120 mg bid, 180 mg bid and 240 mg bid.
(§4) Biomarkers of novel epitopes (neoepitopes) related to collagen turnover and fibrosis (PRO-C6, PRO-C3, C3M, and C6M) were measured by competitive Enzyme Linked Immunosorbant Assay (ELISA) (Nordic Biosciences, Denmark).[1]

C4Ma3 (collagen Type 4) = assay: 12-week study NCT03636347: collagen degradation biomarker C4Ma3; format: in vivo, human; settings: alvelestat at week 12, three treatment arms pooled, N = 17; ANCOVA
Experimental: as §1

PRO-C6 = assay: Phase 1b study: collagen type 6 synthesis biomarker PRO-C6 by competitive ELISA; format: in vivo, human; settings: above ULN at baseline; during alvelestat treatment; FIG. 3B
Experimental: as §2, §3, §4

[3] = system: desmosine (DES) and isodesmosine (IDES); assay: Phase 1b study: plasma desmosine and isodesmosine by isotope-dilution LC/MS; format: in vivo, human
Experimental: as §2, §3
DES and IDES levels in the plasma were measured by an isotope-dilution, liquid-chromatography/mass spectrometry method (Huang et al Thorax 2012; 67:502-508).[12] [13]
Results are presented as Mean and Standard Error Mean (SEM). Samples were taken at baseline and at the end of each dose-escalation stage.

Neutrophil Elastase (NE) [4] = molecular target: T1, Neutrophil Elastase (NE); assay: Phase 1b study: ex-vivo zymosan-stimulated neutrophil elastase activity in whole blood; parameters: induce degranulation of white blood cells including neutrophils, releasing an excess of free active NE into the plasma; from tissue; host or cells: whole blood of patients (neutrophils degranulated with zymosan); plasma measured with ProteaseTag Active Neutrophil Elastase Immunoassay (ProAxsis Ltd); settings: FIG. 2
Experimental: Patients age ≥18 years with BOS and chronic GVHD after HCT were recruited to the National Cancer Institute protocol (NCT02669251). […] Alvelestat was given orally starting at 60 mg twice daily, increased every 2 weeks to 120 mg twice daily, 180 mg twice daily, and finally 240 mg twice daily.
as §3
Ex-vivo zymosan-stimulated Neutrophil Elastase (NE) activity was measured by the following assay: zymosan was added to whole blood to induce degranulation of white blood cells including neutrophils, releasing an excess of free active NE into the plasma. The blood was centrifuged and plasma removed. The level of NE in the plasma sample was measured by the ProteaseTag® Active Neutrophil Elastase Immunoassay (ProAxsis Ltd, Belfast, Northern Ireland).

[5] = Phase 1b study in patients with BOS after HCT: tolerability and clinical outcome; format: in vivo
Experimental: as §2

C1M (collagen Type 1) = assay: 12-week study NCT03636347: collagen degradation biomarker C1M; format: in vivo, human; settings: alvelestat at week 12, three treatment arms pooled, N = 32; alpha-1 anti-trypsin deficient lung disease; ANCOVA
Experimental: as §1

Structure (SMILES): Cc1c(-c2ccnn2C)cc(C(=O)NCc2ccc(S(C)(=O)=O)cn2)c(=O)n1-c1cccc(C(F)(F)F)c1 [alvelestat, N-{[5-(methanesulfonyl)pyridin-2-yl]methyl}-6-methyl-5-(1-methyl-1H-pyrazol-5-yl)-2-oxo-1-[3-(trifluoromethyl)phenyl]-1,2-dihydropyridine-3-carboxamide]
- Effect against GVHD [1]: protective effect
- C6M change from baseline (%), LS Means (SE) (C6M (collagen Type 6)): 1.1% and 1.1 (5.52) %
- C3M change from baseline (%), LS Means (SE) (C3M (collagen Type 3)): −1.7 (4.08) %
- Inhibition of neutrophil elastase (NE) (Neutrophil Elastase (NE) [2]): potent and specific inhibitor
- Collagen synthesis as measured by PRO-C3 (PRO-C3; above ULN at baseline, during alvelestat treatment, FIG. 3A): declined
- Ratio of PRO-C3 to C3M (PRO-C3; blood samples during the study, n=7, FIG. 4): decrease
- C4Ma3 change from baseline (%), LS Means (SE) (C4Ma3 (collagen Type 4)): −6.6 (8.96) %
- Collagen synthesis as measured by PRO-C6 (PRO-C6): declined
- DES and IDES plasma level, mean (SEM) ([3]; patients with BOS after HCT, N=7, week 8 of dose escalation 60 to 240 mg twice daily oral, baseline 0.464): 0.380 (SEM 0.0419) ng/ml
- DES and IDES mean within subject % change from baseline (CFB) ([3]; week 8 of dose escalation, SEM 6.794, FIG. 1): −16.2%
- Ex vivo zymosan stimulated elastase activity, course (Neutrophil Elastase (NE) [4]; over the dose escalation period, N=7): progressive decrease
- Suppression of ex vivo zymosan stimulated elastase activity (Neutrophil Elastase (NE) [4]; some subjects, dose escalation period): 100%
- Tolerability of dose escalation ([5]; all 7 patients, up to maximum dose 240 mg twice daily): able to tolerate dose escalation
- Lung disease outcome (FEV1% predicted at end of treatment no worse than 10% below baseline level) ([5]; the 6 patients with biomarker suppression): improved or stable lung disease
- Patients with consistent suppressive effect on biomarkers of elastase activity and collagen turnover ([5]; treated patients, phase 1b): 6 of 7
- C1M change from baseline (%), LS Means (SE) (C1M (collagen Type 1)): −0.6% and −0.6 (49.42) %
